Source: ChEMBL document CHEMBL1126296, “Orally active aldose reductase inhibitors: indazoleacetic, oxopyridazineacetic, and oxopyridopyridazineacetic acid derivatives” (J Med Chem, 1992)
The source made the active and inactive calls. No cut-off for these calls is given here.

Assays:
[1] = target: Aldo-keto reductase family 1 member B1 (Homo sapiens, UniProt P15121); experiment: Inhibitory activity against aldose reductase isolated from human placenta
Rattus norvegicus [2] = experiment: In vivo inhibition of sorbitol accumulation in sciatic nerve and lens of diabetic rat at a dose of 25 mg/kg.; assay type: functional
Rattus norvegicus [3] = experiment: In vivo inhibition of sorbitol accumulation in sciatic nerve and lens of diabetic rat at a dose of 100 mg/kg.; assay type: functional
Rattus norvegicus [4] = experiment: In vivo inhibition of sorbitol accumulation in sciatic nerve and lens of diabetic rat at a dose of 10 mg/kg.; assay type: functional
Rattus norvegicus [5] = experiment: In vivo inhibition of sorbitol accumulation in sciatic nerve and lens of diabetic rat at a dose of 25 mg/kg; NS=not significant; assay type: functional, organism-based; design: dose 25 mg/kg
Rattus norvegicus [6] = experiment: In vivo inhibition of sorbitol accumulation in sciatic nerve and lens of diabetic rat at a dose of 10 mg/kg; NS=not significant; assay type: functional, organism-based; design: dose 10 mg/kg

SMILES	IC50 [1]	inhibition in vivo at 25 mg/kg (Rattus norvegicus [2])	further results
O=C(O)Cc1nn(Cc2nc3cc(F)cc(F)c3s2)c(=O)c2c1CCCC2	4 nM	–	–
O=C(O)Cc1nn(Cc2nc3cc(F)cc(F)c3s2)c(=O)c2cccnc12	26 nM	68%	–
O=C(O)Cc1ccc(=O)n(Cc2nc3cc(F)cc(F)c3s2)n1	< 10 nM	32%	–
O=C(O)Cc1nn(Cc2nc3ccccc3s2)c(=O)c2ccccc12	–	67%	–
O=C(O)Cc1nn(Cc2nc3ccccc3s2)c(=O)c2cc3ccccc3cc12	46 nM	–	inhibition in vivo at 100 mg/kg (Rattus norvegicus [3]): 48%
O=C(O)Cc1nn(Cc2nc3cc(Br)ccc3s2)c2ccc(Cl)cc12	65 nM	56%	–
O=C(O)Cc1nn(Cc2nc3cc(C(F)(F)F)ccc3s2)c2ccccc12	33 nM	59%	–
Cc1c(CC(=O)O)nn(Cc2nc(-c3cccc(F)c3F)no2)c(=O)c1C	3.3 nM	–	inhibition in vivo at 10 mg/kg (Rattus norvegicus [4]): 26%
O=C(O)Cc1nn(Cc2nc3cc(F)cc(F)c3s2)c2ccccc12	30 nM	61%	–
Cc1cc(=O)n(Cc2nc3cc(C(F)(F)F)ccc3s2)nc1CC(=O)O	18 nM	–	inhibition (Rattus norvegicus [5]): inactive
O=C(O)Cc1nn(Cc2nc3cc(F)ccc3s2)c(=O)c2cccnc12	< 10 nM	64%	–
O=C(O)Cc1nn(Cc2nc3ccccc3s2)c2ccccc12	680 nM	52%	inhibition in vivo at 100 mg/kg (Rattus norvegicus [3]): 77%
O=C(O)Cc1nn(Cc2nc3cc(C(F)(F)F)ccc3s2)c(=O)c2cccnc12	41 nM	74%	–
Cc1c(CC(=O)O)nn(Cc2ccc(Br)cc2F)c(=O)c1C	290 nM	–	inhibition (Rattus norvegicus [6]): inactive
Cc1c(CC(=O)O)nn(Cc2nc3cc(F)cc(F)c3s2)c(=O)c1C	5 nM	–	inhibition in vivo at 10 mg/kg (Rattus norvegicus [4]): 76%
O=C(O)Cc1ccc(=O)n(Cc2nc3cc(C(F)(F)F)ccc3s2)n1	340 nM	–	inhibition (Rattus norvegicus [5]): inactive
O=C(O)Cc1nn(Cc2ccc(Br)cc2F)c(=O)c2cc3ccccc3cc12	420 nM	–	–
Cc1c(CC(=O)O)nn(Cc2nc3cc(C(F)(F)F)ccc3s2)c(=O)c1C	16 nM	81%	–
O=C(O)Cc1nn(Cc2ccc(Br)cc2F)c(=O)c2c1CCCC2	32 nM	87%	–
O=C(O)Cc1nn(Cc2nc3cc(C(F)(F)F)ccc3s2)c(=O)c2ccccc12 [ZOPOLRESTAT]	–	–	inhibition in vivo at 10 mg/kg (Rattus norvegicus [4]): 80%
O=C(O)Cc1nn(Cc2nc3cc(C(F)(F)F)ccc3s2)c(=O)c2ncccc12	2.1 nM	–	inhibition (Rattus norvegicus [6]): inactive
O=C(O)Cc1nn(Cc2nc3cc(F)cc(F)c3s2)c2ccc(Cl)cc12	110 nM	69%	–
O=C(O)Cc1nn(Cc2nc3cc(F)ccc3s2)c2ccc(Cl)cc12	4.6 nM	34%	–
O=C(O)Cc1nn(Cc2nc3cc(C(F)(F)F)ccc3s2)c(=O)c2c1CCCC2	5.2 nM	89%	inhibition in vivo at 10 mg/kg (Rattus norvegicus [4]): 61%
O=C(O)Cc1nn(Cc2ccc(Br)cc2F)c(=O)c2ncccc12	760 nM	–	inhibition (Rattus norvegicus [5]): inactive
O=C(O)Cc1nn(Cc2nc3cc(C(F)(F)F)ccc3s2)c2ccc(Cl)cc12	35 nM	–	inhibition (Rattus norvegicus [5]): inactive
O=C(O)Cc1nn(Cc2ccc(Br)cc2F)c2ccccc12	6200 nM	–	–
O=C(O)Cc1nn(Cc2nc3ccccc3s2)c2ccc(Cl)cc12	58 nM	–	inhibition (Rattus norvegicus [6]): inactive
O=C(O)Cc1nn(Cc2nc3ccccc3o2)c2ccc(Cl)cc12	100 nM	–	–
